Source: ChEMBL document CHEMBL1148003 (Bioorg Med Chem, 2007)
Blank lines part the entries; values can stand above or below the compound they belong to.

Key:
[1] = Inhibition of green coffee bean alpha-D-galactosidase
[2] = Inhibition of Escherichia coli beta-D-galactosidase
[3] = Inhibition of bovine kidney alpha-L-fucosidase; parameters: species or system Bos taurus
[4] = Inhibition of almond beta-D-glucosidase; parameters: species or system Prunus dulcis
[5] = Inhibition of jack bean alpha-D-mannosidase; parameters: species or system Canavalia ensiformis
[6] = Inhibition of green coffee bean alpha-D-galactosidase at 1 mM
Cornu aspersum = experiment: Inhibition of snail beta-D-mannosidase at 1 mM
Bos taurus = species: Bos taurus; experiment: Inhibition of bovine kidney alpha-L-fucosidase at 1 mM
[7] = Inhibition of Aspergillus wentii beta-D-mannosidase
Escherichia coli = experiment: Inhibition of Escherichia coli beta-D-galactosidase at 1 mM
[8] = target: T1, Glucoamylase, intracellular sporulation-specific (Saccharomyces cerevisiae S288c) (UniProt P08019); experiment: Inhibition of yeast alpha-D-glucosidase at 1 mM
T1 sequence (whole entry): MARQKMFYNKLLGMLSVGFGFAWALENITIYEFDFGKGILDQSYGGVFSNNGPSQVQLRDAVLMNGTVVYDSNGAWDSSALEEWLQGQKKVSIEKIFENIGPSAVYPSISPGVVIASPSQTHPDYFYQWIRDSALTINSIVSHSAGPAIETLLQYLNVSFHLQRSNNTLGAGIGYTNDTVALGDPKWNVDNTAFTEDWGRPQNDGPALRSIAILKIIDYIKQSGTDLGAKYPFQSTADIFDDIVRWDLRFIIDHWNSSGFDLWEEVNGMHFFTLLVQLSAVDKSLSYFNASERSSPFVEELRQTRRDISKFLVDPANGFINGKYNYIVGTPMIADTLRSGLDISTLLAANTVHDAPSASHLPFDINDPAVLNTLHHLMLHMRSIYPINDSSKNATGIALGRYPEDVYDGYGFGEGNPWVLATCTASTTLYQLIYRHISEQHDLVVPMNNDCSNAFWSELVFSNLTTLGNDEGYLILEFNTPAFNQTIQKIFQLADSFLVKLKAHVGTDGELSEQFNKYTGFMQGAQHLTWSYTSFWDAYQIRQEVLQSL

[9] = Inhibition of snail beta-D-mannosidase; parameters: species or system Cornu aspersum

Structure (SMILES): O=S(=O)(O)C1NC[C@@H](O)[C@@H]1O (stereo not given in full)
IC50 [4]: 180 µM | Ki [5]: 5 µM

Structure (SMILES): OC[C@H]1NC[C@@H](O)[C@@H]1O
IC50 [4]: 500 µM | IC50 [5]: 200 µM

Structure (SMILES): O=S(=O)(O)C1NC[C@H](O)[C@H]1O (stereo not given in full)
inhibition [6]: 20% | inhibition (Cornu aspersum): 28% | IC50 [4]: 2000 µM | inhibition (Bos taurus): 23%

Structure (SMILES): O[C@H]1[C@H](O)CN[C@H]1O
inhibition [6]: 40% | inhibition (Cornu aspersum): 50% | IC50 [9]: 1000 µM | IC50 [4]: 200 µM | Ki [5]: 5 µM

More lines, main results first:

Ki [1]: 0.2 µM | IC50 [3]: 1000 µM | Ki [4]: 0.3 µM | Ki [5]: 2 µM
Structure (SMILES): O[C@@H]1C=NC[C@@H]1O
Ki [2]: 0.2 µM

IC50 [2]: 1000 µM | Ki [3]: 3 µM | Ki [5]: 20 µM
Structure (SMILES): O[C@@H]1CN=C[C@@H]1O

Ki [7]: 900 µM | Ki [4]: 0.9 µM | Ki [5]: 500 µM
Structure (SMILES): OC[C@H]1NC(O)[C@H](O)[C@@H](O)[C@@H]1O (stereo not given in full) [NOJIRIMYCIN]

Ki [7]: 42 µM | IC50 [4]: 2.2 µM | IC50 [5]: 3 µM
Structure (SMILES): OC[C@H]1N=C[C@@H](O)[C@@H]1O [NECTRISINE]

inhibition [6]: 27% | inhibition (Escherichia coli): 20% | inhibition [8]: 43%
Structure (SMILES): O[C@@H]1CNC[C@H]1O
